According to patent publication US10335488B2, “Method for treating cancer by photodynamic therapy” (D. R. NANO CO., LTD., priority 2014, dated 2019):

Key:
[1] = test system: cancer cells MDA-MB-231, MCF-7, PC-3, HeLa, HT-29; normal cells MRC-5, clone 1-5c-4, NIH/3T3; assay: Accumulation in cells by fluorescence microscopy; assay type: cell-based, human; mouse (NIH/3T3); conditions: 1 hour incubation, fluorescence microscope
Procedure: In order to determine if the nanoparticles (MB NPs) prepared in Example 1 would be accumulated in the cancer cell, 1×10^5 of each of cancer cells MDA-MB-231 (breast, mammary gland/human, Korean Cell Line Bank), MCF-7 (breast, mammary gland/human, Korean Cell Line Bank), PC-3 (prostate; grade 4; metastasis to bone/human, Korean Cell Line Bank), HeLa (cervix/human, Korean Cell Line Bank), and HT-29 (Colon/human, Korean Cell Line Bank) was respectively dispersed in 2 mL of cell culture solution [DMEM (WELGENE) culture solution was used for the HeLa cell, and RPMI1640 (WELGENE) culture solution was used for the other cells]. And then the solution was put into a dish for cell culture (35 mm, glass-bottomed dish), and cultured in a culture chamber (5% CO2, 37° C.). After 24 hours, the dish was washed with 2 mL of DPBS (WELGENE), and 1.8 mL of the culture solution and 0.2 mL of the nanoparticles were added thereto, and the resulting dish was stored in a culture chamber (5% CO2, 37° C.) for 1 hour. The stored cell culture dish was washed with 2 mL of DPBS, cells were fixed with 1 mL of a cell fixation solution, and then fluorescence images were observed by fluorescence microscope (LEICA DMI3000B equipped with a Nuance FX multispectral imaging system, CRI). […]

[2] = test system: cancer cells (MDA-MB-231, MCF-7, PC-3, HeLa, HT-29) and normal cells (MRC-5, Clone-1-5c-4, NIH3T3); assay: Cytotoxicity (Dark) by MTT analysis; assay type: cell-based, human; mouse (NIH/3T3); conditions: 1 hour incubation, no laser
Procedure: In order to confirm of the cytotoxicity of MB NPs, 200 μL of a cell culture solution in which 1×10^4 ea of cells were dispersed was put into a dish for cell culture (96-well plate) and cultured (5% CO2, 37° C.) in an artificial culture chamber for 24 hours, and the dish was washed with DPBS, and then a mixture solution of 20 μL of MB NPs and 180 μL of a cell culture solution was added to the cell, and the resulting culture solution was cultured in the same artificial culture chamber for 1 hour. After the dish was washed with DPBS, the number of each cell was observed by the MTT analysis method.
The experiment was performed on cancer cells and normal cells, and MDA-MB-231 cell, MCF-7 cell, PC-3 cell, HeLa cell, and HT-29 cell are illustrated in FIGS. 7a, 7b, 7c, 7d, and 7e, respectively, and normal cells MRC-5, Clone-1-5c-4, and NIH3T3 are illustrated in FIGS. 8a to 8c, respectively.

Question: Which “infiltration capacity into cell” value [1] does the source give for CN(C)c1ccc2nc3ccc(=[N+](C)C)cc-3sc2c1 [MB Sol., methylene blue] here?
Answer: not found in the cell

Question: What about the “cytotoxicity of the material (Dark)” value [2] of the same compound?
Answer: no cytotoxicity of the material itself
